In brackets after ≈: the same amount, converted by molar mass.
Key:
BT-474 = experiment: Cytotoxicity against human BT474 cells by MTT assay; format: functional, cell-based
SW-620 = experiment: Cytotoxicity against human SW620 cells by MTT assay; format: functional, cell-based

SMILES | IC50 (BT-474) | IC50 (SW-620)
CC1(C)CCC(=O)[C@@]2(C)OO[C@@H]3C[C@@]12CC[C@H]3O [MERULIN A] | 4.98 µg/mL (≈ 19.6 µM) | 4.84 µg/mL (≈ 19 µM)
CC1(C)CCC(=O)[C@H]2OO[C@@H]3C[C@]21CC[C@@]3(O)CO [MERULINS B] | > 10 µg/mL | > 10 µg/mL
CC1(C)CCC(=O)[C@H]2OO[C@@H]3C[C@@]21CC[C@]3(O)CO [MERULINS C] | 1.57 µg/mL (≈ 5.81 µM) | 4.11 µg/mL (≈ 15.2 µM)
